Data on 20 molecules can be found in PubChem BioAssay (NCI).

Where “and” joins values, the source holds several entries; their conditions need not be identical. Equal entries are not always repeated.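 Five compound concentrations were applied to cells in 96-well plates for 48 hours; endpoints were derived by simple linear interpolation of the resulting dose-response curve. GI50: concentration for 50% inhibition of growth. At the TGI there is no net growth.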

Some test systems named below: M19-MEL melanoma; HOP-18 NSCLC; DMS 273 small cell lung; KM20L2 colon; XF 498 CNS; MCF7 breast; DU-145 prostate; NCI/ADR-RES ovarian; MDA-MB-435; BT-549 breast.
Assay in all cases: inhibition of tumour cell growth, NCI panel, 48 h

Regarding `COS(=O)CCOC(=O)c1ccccc1SSc1ccccc1C(=O)OCCS(=O)OC` (stereo not drawn), the TGI was more than 100 µM in the assay on M19-MEL melanoma; more than 100 µM in the assay on HOP-18 NSCLC; more than 100 µM in the assay with DMS 273 small cell lung; more than 100 µM in the assay on KM20L2 colon; 62.8 µM in the assay on XF 498 CNS.

In the case of `NC(=O)Cn1c(=O)[nH]c(=O)c2[nH]cnc21`, the TGI with M19-MEL melanoma, with HOP-18 NSCLC, in the assay on DMS 273 small cell lung and in the assay with KM20L2 colon was more than 100 µM in each case.

Take `O=c1c2c(=NCCCN3CCCC3)cc3c(=O)n(CCCN4CCCC4)c(=O)c4c(NCCCN5CCCC5)cc(c(O)n1CCCN1CCCC1)c2c4-3`: the GI50 with MCF7 breast is 1.42 µM; with DU-145 prostate, 2.96 µM; in the assay on NCI/ADR-RES ovarian, 20.2 µM; in the assay on MDA-MB-435, 3.04 µM; with BT-549 breast, 14.1 µM. The TGI with MCF7 breast is 10.9 µM; in the assay with DU-145 prostate, 7.79 µM; in the assay on NCI/ADR-RES ovarian, more than 100 µM; in the assay with MDA-MB-435, 11.3 µM; with BT-549 breast it was 36.1 µM.

For `CC(C)c1cc2c(O)c(c1)Cc1cc(C(C)C)cc(c1O)Cc1cc(C(C)C)cc(c1O)Cc1cc(C(C)C)cc(c1O)Cc1cc(C(C)C)cc(c1O)Cc1cc(C(C)C)cc(c1O)C2`, the TGI in the assay on M19-MEL melanoma, in the assay with DMS 273 small cell lung, in the assay with KM20L2 colon and in the assay on XF 498 CNS was more than 100 µM in each case.

`Cc1cc(C(=O)NCCN(C)C)c2nc3ccccc3nc2c1`: the TGI in the assay with M19-MEL melanoma is 13.6 µM; in the assay on HOP-18 NSCLC, more than 88.8 µM; in the assay with DMS 273 small cell lung it was more than 100 µM; in the assay on KM20L2 colon it was 15.1 µM.

As to `Cn1cc(/C=C2\C(=O)Nc3cccnc32)c2ccccc21`, the GI50 is 8.04 µM with MCF7 breast; 18 µM with DU-145 prostate; 20.4 µM with NCI/ADR-RES ovarian; 18 µM in the assay with MDA-MB-435; more than 25 µM with BT-549 breast. Further, the TGI in the assay with MCF7 breast, with DU-145 prostate, with NCI/ADR-RES ovarian, with MDA-MB-435 and with BT-549 breast was more than 25 µM each time.

Take `O=C(O)C1C2CC3CC2CC31` (stereo not drawn): the TGI in the assay on DMS 273 small cell lung and in the assay on XF 498 CNS was more than 100 µM each time.

For `Cc1nc(Nc2ccc([N+](=O)[O-])cc2)sc1C(=O)/C=C/c1ccc(N(C)C)cc1`, the TGI in the assay with M19-MEL melanoma, in the assay on HOP-18 NSCLC, with DMS 273 small cell lung and in the assay on KM20L2 colon was more than 100 µM each time.

With `CN(C)/C(=N/C(=O)Nc1ccccc1)SCc1ccccc1`, the TGI with M19-MEL melanoma, in the assay with HOP-18 NSCLC, with DMS 273 small cell lung and in the assay with XF 498 CNS was more than 100 µM each time.

As for `NC(=NC1C2CC3CC(C2)CC1C3)Nc1ccc(I)cc1` (stereo not drawn), the GI50 was 2.45 µM in the assay on MCF7 breast; 3.66 µM in the assay with DU-145 prostate; 4.59 µM with NCI/ADR-RES ovarian; 3.8 µM in the assay with MDA-MB-435; 3.33 µM in the assay on BT-549 breast. Also, the TGI in the assay on MCF7 breast amounted to 10.7 µM; in the assay with DU-145 prostate, 12.6 µM; in the assay on NCI/ADR-RES ovarian it was 17.1 µM; with MDA-MB-435 it was 13.6 µM; with BT-549 breast, 12.8 µM.

For the molecule `CCN(CC)c1ccc(/C=N\NC(=O)c2cccc(Nc3ccnc(C(F)(F)F)c3)c2)c(O)c1`, the GI50 in the assay with MCF7 breast is 0.296 µM; in the assay with DU-145 prostate it was 0.159 µM; with NCI/ADR-RES ovarian, 0.765 µM; with MDA-MB-435, 0.412 µM; in the assay with BT-549 breast it was 0.427 µM. Moreover, the TGI in the assay on MCF7 breast is more than 100 µM; with DU-145 prostate, more than 100 µM; in the assay on NCI/ADR-RES ovarian it was more than 28.1 µM; in the assay with MDA-MB-435, more than 24.1 µM; with BT-549 breast, more than 65.1 µM.

`C[Si](C)(C)[C@@]1([Se]c2ccccc2)CC[C@@H]1C(=O)c1ccccc1`: the TGI in the assay on M19-MEL melanoma, in the assay on DMS 273 small cell lung and in the assay with KM20L2 colon was more than 100 µM each time.

As to `CC(C)(C)c1ccc(C(O)(c2ccc(C(C)(C)C)cc2)c2ccc(C(C)(C)C)cc2)cc1`, the TGI in the assay with MCF7 breast, in the assay on DU-145 prostate, in the assay with NCI/ADR-RES ovarian, in the assay on MDA-MB-435 and with BT-549 breast was more than 100 µM each time.

In the case of `Fc1ccc(-c2c(-c3ccncc3)n(CCN3CCOCC3)c3cccnc23)cc1`, the GI50 in the assay on MCF7 breast, in the assay on DU-145 prostate, with NCI/ADR-RES ovarian, with MDA-MB-435 and with BT-549 breast was more than 25 µM in each case. Further, the TGI in the assay with MCF7 breast, in the assay with DU-145 prostate, with NCI/ADR-RES ovarian, with MDA-MB-435 and in the assay on BT-549 breast was more than 25 µM throughout.

Regarding `S=C1OC2C3C4CC5C3C(O1)C1C5C4C21` (stereo not drawn), the TGI in the assay with M19-MEL melanoma, in the assay on HOP-18 NSCLC, in the assay on DMS 273 small cell lung and in the assay with KM20L2 colon was more than 100 µM in each case.

With `O=C1CCCc2c(O)ccc(O)c21`, the TGI with M19-MEL melanoma, with HOP-18 NSCLC, in the assay on DMS 273 small cell lung and with KM20L2 colon was more than 100 µM throughout.

For the molecule `C=C1C(=O)O[C@H]2[C@H](OC(C)=O)[C@@H](C)CCC/C(C)=C/CC[C@]3(CO3)[C@H](O)C[C@@H]12`, the GI50 in the assay with MCF7 breast was 3.24 µM; in the assay with DU-145 prostate it was 2.56 µM; with NCI/ADR-RES ovarian, 5.92 µM; in the assay with MDA-MB-435, 3.01 µM; in the assay on BT-549 breast, 3.77 µM. Also, the TGI in the assay with MCF7 breast was found to be 12 µM; with DU-145 prostate, 10.2 µM; with NCI/ADR-RES ovarian, 35.2 µM; in the assay with MDA-MB-435 it was 7.99 µM; in the assay on BT-549 breast, 15.4 µM.

`Cc1ccc(S(=O)(=O)ON=C2CC(c3ccccc3)N(C)C(c3ccccc3)C2)cc1` (stereo not drawn): the TGI in the assay with M19-MEL melanoma is 53.5 µM and 56.2 µM; with DMS 273 small cell lung, 41.4 µM and 56.8 µM; in the assay on KM20L2 colon it was 53.6 µM and 45.9 µM.

In the case of `N#CCc1nc2c(s1)C(=O)c1ccccc1C2=O`, the TGI was 11.4 µM in the assay on M19-MEL melanoma, 28.3 µM with HOP-18 NSCLC, 29.9 µM with DMS 273 small cell lung and more than 100 µM in the assay with KM20L2 colon.

For `COc1cc(C(N)=O)c(OC)c(OC)c1OC`, the TGI in the assay on M19-MEL melanoma, in the assay on DMS 273 small cell lung and in the assay on KM20L2 colon was more than 100 µM throughout.
